# Reference: patent publication US12319655B2, “RAF kinase inhibitors and methods of use thereof” (Deciphera Pharmaceuticals, LLC, priority 2021, dated 2025)
# Key:
# A375 cells = test: A375 Cell Proliferation Assay (1); type: cell-based; details: Homo sapiens, A-375
# How it was run: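 Resazurin fluorescence (excitation 540 nm, emission 600 nm, after a further 5-6 h) gave IC50s from triplicate compound dilution series.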
# [1] = target: C-Raf kinase (SEQ. ID NO: 3) (Homo sapiens (Human), UniProt P04049, Y340D/Y341D); test: Biochemical Assay for C-Raf (1); details: Table J, biochemical assay (1); read-out: CRAF (1)
# C-Raf kinase (SEQ. ID NO: 3), sequence (P04049 307-648 Y340D/Y341D): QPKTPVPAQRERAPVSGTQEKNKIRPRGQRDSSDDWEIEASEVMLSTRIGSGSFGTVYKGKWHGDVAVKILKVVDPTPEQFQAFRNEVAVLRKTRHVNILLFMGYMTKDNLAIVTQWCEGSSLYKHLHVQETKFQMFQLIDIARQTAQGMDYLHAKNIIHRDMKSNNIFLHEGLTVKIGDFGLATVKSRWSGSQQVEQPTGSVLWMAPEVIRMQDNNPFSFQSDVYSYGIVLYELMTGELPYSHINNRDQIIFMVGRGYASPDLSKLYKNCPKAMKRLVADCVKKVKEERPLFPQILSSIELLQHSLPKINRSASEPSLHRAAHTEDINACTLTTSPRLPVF
# How it was run: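 IC50 values come from a four-parameter fit of percent inhibition, using the reaction rate over 4–5 h of a 6 h continuous 340 nm read at 30 °C. The enzyme mix was C-Raf 0.43 nM, MEK substrate 30.1 nM and ATP 1 mM, in a PK/LDH NADH-coupled format in Tris pH 7.5 with 1% DMSO.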
# [2] = target: A-Raf kinase (SEQ. ID No: 1) (Homo sapiens (Human), UniProt P10398, Y301D/Y302D); test: Biochemical Assay for A-Raf (1); details: Table J, biochemical assay (1); read-out: ARAF (1)
# A-Raf kinase (SEQ. ID No: 1), sequence (P10398 other isoform, or with tags, fused parts or gaps Y301D (already in the parent)/Y302D (already in the parent)): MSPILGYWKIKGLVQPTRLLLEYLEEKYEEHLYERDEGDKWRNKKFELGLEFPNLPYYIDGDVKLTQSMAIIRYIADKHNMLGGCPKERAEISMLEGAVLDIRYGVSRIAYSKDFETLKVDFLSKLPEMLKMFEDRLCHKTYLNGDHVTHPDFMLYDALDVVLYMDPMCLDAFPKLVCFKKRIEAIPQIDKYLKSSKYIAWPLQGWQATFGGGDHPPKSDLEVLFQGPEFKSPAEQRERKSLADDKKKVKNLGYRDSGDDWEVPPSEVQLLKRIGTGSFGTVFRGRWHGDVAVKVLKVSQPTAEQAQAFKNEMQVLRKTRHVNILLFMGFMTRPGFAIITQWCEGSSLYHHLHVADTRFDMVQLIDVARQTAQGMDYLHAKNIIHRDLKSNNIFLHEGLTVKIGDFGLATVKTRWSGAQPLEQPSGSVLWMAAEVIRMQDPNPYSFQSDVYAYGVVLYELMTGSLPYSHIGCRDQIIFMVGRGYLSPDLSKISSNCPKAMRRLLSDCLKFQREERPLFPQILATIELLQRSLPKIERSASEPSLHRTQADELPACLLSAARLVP
# How it was run: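 IC50 values were derived by four-parameter sigmoidal fitting of percent inhibition, calculated from reaction rates over the 4–5 h window. Absorbance at 340 nm was tracked for 6 h at 30 °C via coupled PK/LDH NADH depletion. Conditions: 1 mM ATP, 30.1 nM MEK substrate, 5.55 nM A-Raf (Y301D/Y302D), Tris pH 7.5, 1% DMSO.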
# WM3928 cells = test: WM3928 Cell Proliferation Assay (1); type: cell-based
# How it was run: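 IC50 was derived from resazurin fluorescence (ex 540, em 600 nm) after a 6–7 h dye incubation. Before that, cells had 67–72 h of compound exposure at 37 °C, 5% CO2.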
SMILES,IC50 (A375 cells) [nM],IC50 [1] [nM],IC50 [2] [nM],IC50 (WM3928 cells) [nM]
Cc1ccc(NC(=O)c2ccnc(C(C)(C)F)c2)cc1-c1cncc(-c2ccnc(C(N)=O)c2)c1 [Example 380],100 to 500,≤ 100,1000 to 10000,≤ 100
COC(=O)Nc1cc(-c2cncc(-c3cc(NC(=O)c4ccnc(C(C)(C)F)c4)c(F)cc3C)c2)ccn1 [Example 384],≤ 100,≤ 100,1000 to 10000,≤ 100
Cc1ncc(NC(=O)c2ccnc(C(C)(C)C#N)c2)cc1-c1cccc(-c2ncnn3cccc23)c1 [Example 385],1000 to 10000,100 to 500,1000 to 10000,1000 to 10000
COC(=O)Nc1cc(-c2cc(-c3cc(NC(=O)c4ccnc(C(C)(C)F)c4)c(F)cc3C)cc(C)n2)ccn1 [Example 386],100 to 500,≤ 100,1000 to 10000,100 to 500
CNC(=O)c1cc(-c2cncc(-c3cc(NC(=O)c4ccnc(C5(C#N)CC5)c4)ccc3C)c2)ncn1 [Example 393],100 to 500,≤ 100,1000 to 10000,≤ 100
Cc1ccc(NC(=O)c2ccnc(C(C)(C)F)c2)cc1-c1cncc(-c2cc(NC(=O)C3CC3)ncn2)c1 [Example 394],≤ 100,≤ 100,100 to 500,≤ 100
Cc1ccc(NC(=O)c2ccnc(C3(C#N)CC3)c2)cc1-c1cncc(-c2cc(NC(=O)C3CC3)ncn2)c1 [Example 395],≤ 100,≤ 100,500 to 1000,≤ 100
Cc1cc(F)c(NC(=O)c2ccnc(C3CC3)c2)cc1-c1cncc(-c2cc(NC(=O)C3CC3)ncn2)c1 [Example 398],≤ 100,≤ 100,1000 to 10000,≤ 100
Cc1cc(F)c(NC(=O)c2ccnc(C(C)(C)F)c2)cc1-c1cncc(-c2ccnc(NC(=O)C3CC3)c2)c1 [Example 399],≤ 100,≤ 100,500 to 1000,≤ 100
Cc1ccc(NC(=O)c2ccnc(C(C)(C)F)c2)cc1-c1cc(-c2ccnc3[nH]ncc23)cnn1 [Example 400],1000 to 10000,≤ 100,1000 to 10000,1000 to 10000
COC(=O)Nc1cc(-c2cc(-c3cc(NC(=O)c4ccnc(C(C)(C)F)c4)ccc3C)cc(OCCO)n2)ccn1 [Example 401],≤ 100,≤ 100,1000 to 10000,≤ 100

# Second part, led by results:
IC50 (A375 cells) [nM],IC50 [1] [nM],IC50 [2] [nM],SMILES,IC50 (WM3928 cells) [nM]
1000 to 10000,≤ 100,1000 to 10000,Cc1ccc(NC(=O)[C@H]2CCO[C@@H](C(C)C)C2)cc1-c1cc(-c2ccnc(NC(=O)C3CC3)c2)cnn1 [Example 388],500 to 1000
1000 to 10000,≤ 100,1000 to 10000,Cc1ccc(NC(=O)[C@H]2CCO[C@H](C(C)C)C2)cc1-c1cc(-c2ccnc(NC(=O)C3CC3)c2)cnn1 [Example 389],500 to 1000
≤ 100,≤ 100,1000 to 10000,COC(=O)Nc1cc(-c2nccc(-c3cc(NC(=O)c4ccnc(C(C)(C)F)c4)ccc3C)n2)ccn1 [Example 391],≤ 100
1000 to 10000,100 to 500,1000 to 10000,CNC(=O)c1cc(-c2ccnc(-c3cc(NC(=O)CCC4(F)CC4)ccc3C)c2)ccn1 [Example 392],1000 to 10000
≤ 100,≤ 100,100 to 500,Cc1ccc(NC(=O)c2ccnc(C3CC3)c2)cc1-c1cncc(-c2cc(NC(=O)C3CC3)ncn2)c1 [Example 396],≤ 100
≤ 100,≤ 100,1000 to 10000,Cc1ccc(NC(=O)c2ccnc(C(F)(F)F)c2)cc1-c1cncc(-c2cc(NC(=O)C3CC3)ncn2)c1 [Example 397],≤ 100
100 to 500,≤ 100,1000 to 10000,COC(=O)Nc1cc(-c2cccc(-c3cc(NC(=O)c4ccnc(C(C)(C)F)c4)cnc3C)c2)ccn1 [Example 402],100 to 500
100 to 500,≤ 100,1000 to 10000,COC(=O)Nc1cc(-c2ccnc(-c3cc(NC(=O)c4ccnc(C(C)(C)F)c4)ccc3C)n2)ccn1 [Example 403],≤ 100
